The test system of data set [1] is Pre-EIF4A1 and SLC25A19 expression in Nalm-6 SF3B1^K700E xenograft tumors. In words: PK/PD testing in Nalm-6 mouse xenograft model. Format: in vivo, CB17-SCID mice. Conditions: single oral dose. The method, then:
Pharmacokinetics (PK)/pharmacodynamics (PD) of Compound 2 were also analyzed in the Nalm-6 mouse xenograft model. Nalm-6 SF3B1^K700E isogenic cells (human pre B-cell line, 10×10^6 cells) were subcutaneously implanted into the flank of female CB17-SCID mice. Mice were administered a single oral dose of 10 mg/kg Compound 2 (10% ethanol, 5% TWEEN-80, 85% saline), and the tumors were collected at the indicated times post administration for analysis.
RNA was isolated using RiboPure™ RNA purification kit (Ambion®) and used for qPCR analysis. The RNA was retrotranscribed according to the instructions of the SuperScript® VILO™ cDNA synthesis kit (Invitrogen™), and 0.04 μl of cDNA was used for quantitative PCR (qPCR). qPCR for pre-mRNA EIF4A1 and mature mRNA […] and PK evaluation were performed as reported previously (Eskens, F. A. et al. Phase I pharmacokinetic and pharmacodynamic study of the first-in-class spliceosome inhibitor E7107 in patients with advanced solid tumors. Clin Cancer Res. 19, 6296-6304, doi:10.1158/1078-0432.CCR-13-0485 (2013)). All animal studies were carried out according to the H3 Biomedicine Guide for the Care and Use of Laboratory Animals.
Pharmacokinetics (PK)/pharmacodynamics (PD) of Compound 1 were also analyzed in the Nalm-6 mouse xenograft model. […]

The subject of data set [2] is Nalm-6 SF3B1^K700E isogenic cells (human pre B-cell line) xenograft. In words: Nalm-6 SF3B1^K700E mouse xenograft efficacy model. Format: in vivo, CB17-SCID mice. Conditions: orally dosed daily for 14 days (QD×14 PO). The method, then: The efficacy of Compound 2 was tested in a mouse xenograft model. Nalm-6 SF3B1^K700E isogenic cells (human pre B-cell line, 10×10^6 cells) were subcutaneously implanted into the flank of female CB17-SCID mice. Mice were treated with Compound 2 (10% ethanol, 5% TWEEN-80, 85% saline) or vehicle control. The animals were orally dosed daily for 14 days (QD×14 PO) at the amounts indicated in FIG. 2 and were monitored until they reached either of the following endpoints: 1) excessive tumor volume measured three times a week (tumor volume calculated by using the ellipsoid formula: (length×width^2)/2); or 2) development of any health problems such as paralysis or excessive body weight loss. All animal studies were carried out according to the H3 Biomedicine Guide for the Care and Use of Laboratory Animals.
The efficacy of Compound 1 was tested in a mouse xenograft model. […] The animals were orally dosed daily for 14 days (QD×14 PO) with 7.5 mg/kg or 10 mg/kg Compound 1 or vehicle and were monitored until they reached either of the following endpoints: 1) excessive tumor volume measured three times a week (tumor volume calculated by using the ellipsoid formula: (length×width^2)/2); or 2) development of any health problems such as paralysis or excessive body weight loss. […]

The test system of data set [3] is Panc 05.04 cancer cells (SF3B1^MUT) vs BXPC3, HPAFII, PANC0403, PANC1005, CFPAC1 and MIAPACA2. In words: Cellular viability assay, mutant vs wild-type SF3B1 pancreatic cancer cell lines. Format: cell-based. Conditions: 72 hours at 37° C., 384-well plate. As to the method:
To assess the viability of Panc 05.04 cancer cells (SF3B1^MUT) (Q699H and K700E mutations in SF3B1) in the presence of Compound 2, cells were seeded at 750 cells per well in a 384-well plate and treated with Compound 2 at the concentrations indicated in FIG. 4 for 72 hours at 37° C. The relative number of viable or apoptotic cells were measured by luminescence using CELLTITER-GLO® luminescent Cell Viability Assay (Promega).

A short description of data set [4]: Mouse pharmacokinetic (PK) study. Format: in vivo, CD-1 mice. As to the method: Compound 2 was dosed at 5 mg/kg IV (intravenous) or 10 mg/kg PO (oral administration) to CD-1 mice. Following administration, blood samples were collected at pre-determined time points from five mice via serial bleeding of the tail vein. Blood was collected at 0.083 (0.167 PO only), 0.5, 1, 2, 4, 6, 8, and 24 hours post administration. The blood samples were centrifuged at 5000 RPM for 5 minutes to collect plasma within 30 minutes of blood collection. After extraction, samples were assayed using LCMS. PK parameters were calculated using non-compartmental analysis in WinNonlin v6.3.
Compound 1 was dosed at 5 mg/kg IV or 12 mg/kg PO to CD-1 mice. Following administration, blood samples were collected at pre-determined time points from five mice via serial bleeding from the tail vein. Blood was collected at 0.083 (0.167 PO only), 0.5, 1, 2, 4, 6, 8, and 24 hours post-dose. The blood samples were centrifuged at 5000 RPM for 5 minutes to collect plasma within 30 minutes of blood collection. After extraction, samples were assayed using LCMS. PK parameters were calculated using non-compartmental analysis in WinNonlin v6.3.
Compound 3 was dosed at 5.964 mg/kg IV or 13.307 mg/kg PO to CD-1 mice. Following administration, blood samples were collected at pre-determined time points from five mice via serial bleeding from the tail vein. Blood was collected at 0.083 (0.167 PO only), 0.5, 1, 2, 4, 6, 8, and 24 hours post-dose. The blood samples were centrifuged at 5000 RPM for 5 minutes to collect plasma within 30 minutes of blood collection. After extraction, samples were assayed using LCMS. PK parameters were calculated using non-compartmental analysis in WinNonlin v6.3.
Compound 4 was dosed at 5 mg/kg IV or 10 mg/kg PO to CD-1 mice. Following administration, blood samples were collected at pre-determined time-points from five mice via serial bleeding from the tail vein. Blood was collected at 0.083 (0.167 PO only), 0.5, 1, 2, 4, 6, 8, and 24 hours post-dose. The blood samples will be centrifuged at 5000 RPM for 5 minutes to collect plasma within 30 minutes of blood collection. After extraction, samples were assayed using LCMS. PK parameters were calculated using non-compartmental analysis in WinNonlin v6.3.

Setting [5] is: mouse, plasma, CD-1 mice, 5 mg/kg IV.
[6] abbreviates: mouse, plasma, CD-1 mice, 10 mg/kg PO.

The structures appear in SMILES notation. Entries after “also recorded” stand apart in the source; their conditions may differ.

What is called AUC(0-inf) is total exposure, with the tail of the curve extrapolated. Low values mean less exposure, high ones more exposure. As a reminder, the AUC(0-t) is exposure summed from dosing to a finite time, without extrapolation to infinity. A lower AUC(0-t) goes with less exposure. As a reminder, the half-life is the time needed for the level to fall by half in the phase considered. A low value points to fast loss. The Cmax is the maximum level reached in the sampled fluid or tissue. Usually Tmax stands for the time at which the peak concentration occurs. As a reminder, the bioavailability is the share of a dose that reaches the circulation, judged against a reference dose that is usually intravenous. Low readings indicate poor availability, high ones good availability. On to `C/C(=C\C=C\[C@@H](C)c1ccccn1)[C@H]1OC(=O)C[C@H](O)CC[C@@](C)(O)[C@@H](OC(=O)N2CCN(C)CC2)/C=C/[C@@H]1C` [Compound 2, (2S,3 S,6S,7R,10R,E)-7,10-dihydroxy-3,7-dimethyl-12-oxo-2-((R,2E,4E)-6-(pyridin-2-yl)hepta-2,4-dien-2-yl)oxacyclododec-4-en-6-yl 4-methylpiperazine-1-carboxylate], for which the “PD responses (fold change in Pre-EIF4A1 and SLC25A19 expression in tumor)” value in data set [1] was “showed PD responses at a tolerated dose”. Moreover, in data set [2], the “efficacy / tumor growth in xenograft mouse model” value is “efficacious when administered via the oral route and reduced tumor growth”. Moreover, the “differential cellular lethality, mutant vs wild-type SF3B1 pancreatic cancer cell lines” value in data set [3] was “differential cellular lethality in the mutant SF3B1 pancreatic cancer cell line over wild-type SF3B1 pancreatic cancer cell lines”. Also, the AUC0-inf/D in data set [4] (CD-1 mice, 5 mg/kg IV) was 632.71 ng · h/mL/D. In data set [4] (CD-1 mice, 10 mg/kg PO), this compound returned an AUC0-inf/D of 254.49 ng · h/mL/D and a Cmax/D of 84.07 ng/mL/D. Besides, the “oral bioavailability and pharmacokinetic properties (in words)” value in data set [4] (mouse model, IV and PO dosing) was “shows oral bioavailability and favorable pharmacokinetic properties; also recorded: possess oral bioavailability and favorable pharmacokinetic properties”. Besides, in data set [4] (setting [5]), the area under the curve AUC(0-inf) came out at 3160 ng·h/mL, the area under the curve AUC(0-t) turned out to be 3160 ng·h/mL and the half-life is 3.88 h. The clearance in data set [4] (mouse, plasma, CD-1 mice, 5 mg/kg IV, read-out: CL (converted)) was 26.3 mL/min/kg. For the same compound, the Vd in data set [4] (mouse, plasma, CD-1 mice, 5 mg/kg IV, read-out: Vss) was found to be 2.37 L/kg. Further, in data set [4] (setting [6]), the AUC(0-inf) was 2540 ng·h/mL, the area under the curve AUC(0-t) worked out at 2510 ng·h/mL, the highest level (Cmax) was 841 ng/mL and the time to peak (Tmax) is 1 h. In data set [4] (setting [6]), the bioavailability was found to be 40.2% and the half-life is 4.04 h.

Values taken from patent publication US9481669B2, “Pladienolide pyridine compounds and methods of use” (Eisai R&D Management Co., Ltd., priority 2014, dated 2016).
